# Assay results reported in the supplement of paper PMC10307832.
# Experiments:
# Assay in all cases: relative viability (nuclei count vs DMSO), 5 days (fraction); higher = more cells survive
# [1] = compound: CC1=CC(=CC=C1)NC2=NC(=CS2)C3=CC=NC=C3 + C[C@]1(O)C[C@@H](c2nc(-c3ccc4ccc(-c5ccccc5)nc4c3)c3c(N)nccn32)C1 [Linsitinib] (partner 1 µM)
# Outline: (§1)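 Values are medians from duplicate plates. Each reflects relative viability, defined as the nuclei count of treated wells over that of vehicle wells. Lung cancer cell lines in 1536-well plates were pin-tool dosed one day after seeding with one drug alone or with a fixed anchor-drug dose plus five library-drug doses (not always all listed) in √10 steps, then fixed, stained and imaged at 4× after 5 days.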
# [2] = compound: CC1=CC(=CC=C1)NC2=NC(=CS2)C3=CC=NC=C3 + C[C@@H](Oc1cc(-c2cnn(C3CCNCC3)c2)cnc1N)c1c(Cl)ccc(F)c1Cl [Crizotinib] (partner 1 µM)
# Outline: as §1
# Masitinib + Pictilisib = compound: Cc1ccc(NC(=O)c2ccc(CN3CCN(C)CC3)cc2)cc1Nc1nc(-c2cccnc2)cs1 [Masitinib] + CS(=O)(=O)N1CCN(Cc2cc3nc(-c4cccc5[nH]ncc45)nc(N4CCOCC4)c3s2)CC1 [Pictilisib] (partner 1 µM)
# Outline: as §1
# [3] = compound: CC1=CC(=CC=C1)NC2=NC(=CS2)C3=CC=NC=C3 + COc1cc2c(Oc3ccc(NC(=O)C4(C(=O)Nc5ccc(F)cc5)CC4)cc3F)ccnc2cc1OCCCN1CCOCC1 [Foretinib] (partner 0.25 µM)
# Outline: as §1
Cell Line,relative viability ([1]; first compound 0.08 µM),relative viability ([1]; first compound 0.253 µM),relative viability ([1]; first compound 0.8 µM),relative viability ([1]; first compound 2.53 µM),relative viability ([1]; first compound 8 µM),relative viability ([2]; first compound 0.08 µM),relative viability ([2]; first compound 0.253 µM),relative viability ([2]; first compound 0.8 µM),relative viability ([2]; first compound 2.53 µM),relative viability ([2]; first compound 8 µM),relative viability (Masitinib + Pictilisib; first compound 0.01 µM),relative viability (Masitinib + Pictilisib; first compound 0.03162 µM),relative viability (Masitinib + Pictilisib; first compound 0.1 µM),relative viability (Masitinib + Pictilisib; first compound 0.3162 µM),relative viability (Masitinib + Pictilisib; first compound 1 µM),relative viability ([3]; first compound 0.08 µM),relative viability ([3]; first compound 0.253 µM),relative viability ([3]; first compound 0.8 µM),relative viability ([3]; first compound 2.53 µM),relative viability ([3]; first compound 8 µM)
NCI-H596,1.03,0.995,0.764,0.991,0.806,0.875,0.929,0.814,0.943,0.971,0.214,0.345,0.438,0.385,0.35,0.804,0.999,0.728,0.805,0.838
A549,0.486,0.684,0.619,0.532,0.562,0.75,0.73,0.776,0.735,0.627,0.459,0.48,0.478,0.576,0.566,0.882,0.914,0.871,0.866,0.802
NCI-H520,0.91,0.935,0.975,0.986,1,0.741,0.9,0.81,0.839,0.939,0.336,–,0.366,0.313,0.271,0.773,0.778,0.71,0.647,0.938
EKVX,0.914,0.778,0.882,0.882,0.705,0.907,0.893,0.795,0.801,0.497,–,0.364,0.463,0.275,0.412,0.941,0.726,0.578,0.733,0.75
SK-MES-1,0.878,0.933,0.81,1.04,0.874,0.79,0.781,0.815,0.842,0.853,0.346,0.312,0.406,0.332,0.371,0.687,0.78,0.751,1.04,0.8
EPLC-272H,1.08,–,1.05,–,1.19,0.854,–,0.877,–,0.885,0.29,0.304,0.319,0.284,0.293,0.657,0.711,0.623,0.597,0.723
NCI-H2228,0.569,0.629,0.408,0.586,0.705,0.318,0.334,0.4,0.457,0.352,0.381,0.36,0.398,0.236,0.392,0.705,0.955,0.766,0.893,0.892
NCI-H1299,0.93,0.985,0.936,0.928,0.928,0.89,0.891,0.924,0.931,0.804,0.8,0.785,0.81,0.947,0.736,1,1.06,0.993,1.01,0.897
NCI-H2023,0.63,0.666,0.618,0.678,0.507,0.603,0.525,0.507,0.758,0.37,0.225,0.248,0.286,0.191,0.243,0.81,0.712,0.778,1.09,0.681
NCI-H3122,0.991,0.938,0.907,1,0.964,0.266,0.31,0.334,0.332,0.47,0.579,0.623,0.595,0.677,0.574,0.885,0.967,0.984,0.971,1.01
HCC-78,0.398,0.506,0.542,0.423,0.63,0.324,0.312,0.311,0.333,0.346,0.206,0.19,0.23,0.19,0.223,–,0.484,0.558,0.537,0.568
LOU-NH91,0.82,0.925,0.903,0.979,0.769,0.706,0.759,0.717,0.728,0.693,0.497,0.499,0.492,0.432,0.501,0.794,0.853,0.807,0.896,0.903
IA-LM,0.489,0.49,0.692,0.308,0.549,0.519,0.581,0.86,0.563,0.466,0.291,0.415,0.353,0.455,0.418,1.04,1.16,1.03,0.941,0.838
NCI-H322M,0.832,0.937,0.791,1.12,0.771,0.846,0.808,0.775,0.859,0.834,0.545,0.463,0.481,0.503,0.483,0.788,0.924,0.89,1.01,0.915
HCC-827,0.914,0.874,0.969,0.906,0.907,0.945,0.91,0.854,0.89,0.856,0.998,0.918,0.977,0.921,0.942,1.02,1,0.997,1.02,0.958
SW 1573,0.845,0.65,0.705,0.901,0.779,0.671,0.77,0.864,1.01,0.783,0.471,0.542,0.478,0.472,0.452,0.818,0.872,0.97,0.986,0.869
NCI-H1993,0.675,0.605,0.714,0.698,0.738,0.847,0.706,0.853,0.91,0.946,0.859,–,1.05,0.778,0.825,0.684,0.635,0.649,0.703,0.669
NCI-H1734,0.828,0.981,0.869,0.835,0.719,0.665,0.667,0.635,0.653,0.622,0.441,0.459,0.532,0.412,0.395,0.821,0.84,0.816,0.873,0.794
NCI-H1666,0.781,0.614,0.432,0.474,0.41,0.722,0.567,0.526,0.567,0.386,0.393,0.382,0.474,0.246,0.346,0.929,0.905,0.81,0.767,0.642
NCI-H460,0.736,0.95,0.605,0.862,0.525,0.753,0.827,0.913,1,0.811,0.587,0.26,0.415,0.254,0.321,0.915,0.894,0.948,0.924,0.82
LCLC-103H,0.942,0.967,1.01,1.24,1.03,0.918,0.924,0.902,1.02,0.888,0.557,0.621,0.596,0.583,0.543,0.663,0.695,0.725,0.76,0.608
LCLC-97TM1,–,–,0.212,0.207,0.168,–,–,0.744,0.366,0.42,0.156,0.172,0.287,0.218,0.2,0.966,0.906,0.841,1.02,0.929
NCI-H838,0.882,0.937,0.855,0.868,0.651,0.817,0.661,0.749,0.819,0.682,0.477,0.387,0.512,0.396,0.432,0.838,0.861,0.923,1.04,0.866
NCI-H1437,0.945,1.01,0.913,1,0.759,0.938,1.03,0.91,1.06,0.926,0.432,0.421,0.403,0.421,0.382,1.16,1.21,1.11,1.27,1.12
HOP-62,0.984,0.706,1.03,1.16,0.725,0.935,0.788,0.944,0.503,0.93,0.652,0.676,0.842,0.71,0.557,1.08,1.07,1.12,1.15,1.04
NCI-H2087,0.934,0.862,0.996,0.888,0.798,0.895,1.04,0.847,0.67,0.838,0.894,0.859,0.837,0.93,0.805,0.996,1.12,0.994,1.05,0.688
